Experimental data as given in patent publication US20100172854A1, “ANTIBACTERIAL FORMULATIONS” (priority 2007, published 2010).
≈ marks a conversion by molar mass, not a printed value.

Assays:
Format in all cases: cell-based
[1] = test system: Streptococcus mutans ATCC 35668; test: MIC assay; conditions: ATCC35668
Method: (§1) The S. mutans strains were cultured and maintained on Wilkins-Chalgren Anaerobe Medium (agar and broth) at pH 7.0 supplemented with 1 g/L glucose; all cultures were incubated at 37° C. for 48 h in an atmosphere containing 5% CO2.
(§2) This is a standard international method for quantitatively assessing the antimicrobial activity of a compound in a liquid medium. The method used a sterile 96-well microtitre plate, capable of holding about 200 μl of liquid per well. The wells contained liquid culture medium and ranges of decreasing concentrations of the relevant test compound in doubling dilutions (e.g. 1000, 500, 250, 125 . . . μg/ml, etc. down to 0.49 μg/ml). The culture media were as described above.
(§3) The wells were inoculated with a liquid suspension of freshly grown micro-organism and incubated under the conditions described above. After incubation, the microtitre plate was examined visually (with the aid of a light box) for cloudiness in each well, which would indicate microbial growth. The MIC value was recorded as the lowest concentration of test compound required to inhibit microbial growth, i.e. the lowest concentration for which the liquid in the well remained clear.
(§4) The assays included both negative (culture medium with no micro-organisms) and positive (culture medium plus diluting solvent plus micro-organism) controls.

[2] = test system: Streptococcus mutans ATCC 25175; test: MIC assay; conditions: ATCC25175
Method: as §1, §2, §3, §4

[3] = test system: Propionibacterium acnes NCTC 737; test: MBC assay; conditions: P. acnes NCTC 737; for MBC: Cutibacterium acnes, NCTC737
Method: (§5) The propionibacteria were cultured and maintained on Wilkins-Chalgren Anaerobe Medium (agar and broth) at pH 6.0; all cultures were incubated anaerobically at 37° C. for 72 hours.
(§6) This assay, normally carried out after an MIC assay, determines the minimum concentration of a compound that is lethal to the micro-organism being tested.
(§7) These samples were then individually sub-cultured on antibiotic-free agar medium, under the incubation conditions described above. Following incubation they were examined visually for microbial growth.

[4] = test system: Staphylococcus aureus ATCC 29213; test: MBC assay; conditions: S. aureus ATCC 29213; for MBC: Staphylococcus aureus, ATCC29213
Method: (§8) The staphylococci were cultured and maintained on Mueller-Hinton Medium (agar and broth) at pH 7.2; cultures were incubated aerobically at 37° C. for 19-20 hours.
as §6, §7

[5] = test system: Porphyromonas gingivalis NCTC 11834; test: MIC assay; conditions: NCTC11834
Method: (§9) The P. gingivalis strains were cultured and maintained on Wilkins-Chalgren Anaerobe Medium (agar and broth) at pH 7.0; all cultures were incubated anaerobically at 37° C. for 5-7 days.
as §2, §3, §4

[6] = test system: Porphyromonas gingivalis ATCC 53978; test: MIC assay; conditions: ATCC53978
Method: as §9, §2, §3, §4

[7] = test system: Porphyromonas gingivalis ATCC BAA-308; test: MIC assay; conditions: ATCCBAA308
Method: as §9, §2, §3, §4

[8] = test system: Porphyromonas gingivalis NCTC 11834; test: MBC assay
Method: as §9, §6, §7

[9] = test system: Porphyromonas gingivalis ATCC 53978; test: MBC assay
Method: as §9, §6, §7

[10] = test system: Porphyromonas gingivalis ATCC BAA-308; test: MBC assay
Method: as §9, §6, §7

[11] = test system: Staphylococcus aureus ATCC 29213; test: MIC assay; conditions: ATCC29213, S. aureus ATCC 29213
Method: as §8, §2, §3, §4

[12] = test system: Listeria monocytogenes ATCC 15313; test: MIC assay; conditions: ATCC15313, read-out: MIC
Method: as §2, §3, §4

[13] = test system: Corynebacterium mucifaciens ATCC 700355; test: MIC assay; conditions: C. mucifaciens ATCC 700355
Method: as §2, §3, §4

[14] = test system: Enterococcus faecalis ATCC 29212; test: MIC assay; conditions: E. faecalis ATCC 29212
Method: as §2, §3, §4

[15] = test system: Clostridium sporogenes ATCC 3584; test: MIC assay; conditions: ATCC3584
Method: as §2, §3, §4

[16] = test system: Streptococcus pyogenes ATCC 12344; test: MIC assay; conditions: S. pyogenes ATCC 12344
Method: as §2, §3, §4

[17] = test system: Streptococcus sobrinus ATCC 33478; test: MIC assay; conditions: ATCC33478
Method: as §2, §3, §4

[18] = test system: Clostridium difficile ATCC 7000057; test: MIC assay; conditions: Clostridioides difficile, ATCC7000057
Method: as §2, §3, §4

[19] = test system: Gardnerella vaginalis ATCC 14018; test: MIC assay; conditions: ATCC14018
Method: as §2, §3, §4

[20] = test system: Bacillus cereus ATCC 11778; test: MIC assay; conditions: ATCC11778, read-out: MIC
Method: as §2, §3, §4

[21] = test system: Actinomyces naeslundii ATCC 12104; test: MIC assay; conditions: ATCC12104, read-out: MIC
Method: as §2, §3, §4

[22] = test system: Prevotella nigrescens ATCC 33563; test: MIC assay; conditions: ATCC33563
Method: as §2, §3, §4

[23] = test system: Propionibacterium acnes NCTC 737; test: MIC assay; conditions: Cutibacterium acnes, NCTC737; P. acnes NCTC 737
Method: as §5, §2, §3, §4

[24] = test system: Streptococcus mutans ATCC 35668; test: MBC assay
Method: as §1, §6, §7

[25] = test system: Streptococcus mutans ATCC 25175; test: MBC assay
Method: as §1, §6, §7

[26] = test system: Listeria monocytogenes ATCC 15313; test: MBC assay
Method: as §6, §7

[27] = test system: Clostridium sporogenes ATCC 3584; test: MBC assay
Method: as §6, §7

[28] = test system: Streptococcus sobrinus ATCC 33478; test: MBC assay
Method: as §6, §7

[29] = test system: Clostridium difficile ATCC 7000057; test: MBC assay
Method: as §6, §7

[30] = test system: Gardnerella vaginalis ATCC 14018; test: MBC assay
Method: as §6, §7

[31] = test system: Bacillus cereus ATCC 11778; test: MBC assay
Method: as §6, §7

[32] = test system: Actinomyces naeslundii ATCC 12104; test: MBC assay
Method: as §6, §7

[33] = test system: Prevotella nigrescens ATCC 33563; test: MBC assay
Method: as §6, §7

CCc1cc(Cc2cc(CC)cc(C(C)(C)C)c2O)c(O)c(C(C)(C)C)c1 [AO 425, 2,2′-methylene-bis(4-ethyl-6-tert-butylphenol)]
MIC [1]: 7.8 µg/mL (≈ 21.2 µM) | MIC [2]: 15.6 µg/mL (≈ 42.3 µM) | MBC [3]: 31.2 µg/mL (≈ 84.8 µM) | MIC/MBC Ratio [3]: 0.25 | MIC/MBC Ratio [4]: 0.125 | MBC [4]: 62.5 µg/mL (≈ 170 µM) | MIC [5]: 1.95 µg/mL (≈ 5.29 µM) | MIC [6]: 0.98 µg/mL (≈ 2.66 µM) | MIC [7]: 1.95 µg/mL (≈ 5.29 µM) | MIC/MBC Ratio [8]: 1 | MBC ([8]; NCTC11834): 1.95 µg/mL (≈ 5.29 µM) | MIC/MBC Ratio [9]: 1 | MBC ([9]; ATCC53978, read-out: MBC): 0.98 µg/mL (≈ 2.66 µM) | MIC/MBC Ratio [10]: 0.5 | MBC ([10]; ATCCBAA308): 3.9 µg/mL (≈ 10.6 µM) | MIC [11]: 7.8 µg/mL (≈ 21.2 µM) | MIC [12]: 0.98 µg/mL (≈ 2.66 µM) | activity compared with AO 2246 [13]: significantly lower activity | activity compared with AO 2246 [14]: significantly lower activity | MIC [15]: 3.9 µg/mL (≈ 10.6 µM) | activity compared with AO 2246 [16]: significantly lower activity | MIC [17]: 31.2 µg/mL (≈ 84.8 µM) | MIC [18]: 7.8 µg/mL (≈ 21.2 µM) | MIC [19]: 15.6 µg/mL (≈ 42.3 µM) | MIC [20]: 1.95 µg/mL (≈ 5.29 µM) | MIC [21]: 0.98 µg/mL (≈ 2.66 µM) | MIC [22]: 15.6 µg/mL (≈ 42.3 µM) | MIC [23]: 7.8 µg/mL (≈ 21.2 µM) | MIC/MBC Ratio [24]: <0.03 | MBC ([24]; ATCC35668): > 250 µg/mL | MIC/MBC Ratio [25]: 0.25 | MBC ([25]; ATCC25175): 62.5 µg/mL (≈ 170 µM) | MIC/MBC Ratio [26]: 0.125 | MBC ([26]; ATCC15313): 7.8 µg/mL (≈ 21.2 µM) | MIC/MBC Ratio [27]: 0.5 | MBC ([27]; ATCC3584): 7.8 µg/mL (≈ 21.2 µM) | MIC/MBC Ratio [28]: 0.5 | MBC ([28]; ATCC33478): 62.5 µg/mL (≈ 170 µM) | MIC/MBC Ratio [29]: 1 | MBC ([29]; Clostridioides difficile, ATCC7000057): 7.8 µg/mL (≈ 21.2 µM) | MIC/MBC Ratio [30]: 0.5 | MBC ([30]; ATCC14018): 31.2 µg/mL (≈ 84.8 µM) | MIC/MBC Ratio [31]: 0.5 | MBC ([31]; ATCC11778): 3.9 µg/mL (≈ 10.6 µM) | MIC/MBC Ratio [32]: 0.25 | MBC ([32]; ATCC12104): 3.9 µg/mL (≈ 10.6 µM) | MIC/MBC Ratio [33]: <1 | MBC ([33]; ATCC33563): > 15.6 µg/mL

CC(c1cc(C(C)(C)C)cc(C(C)(C)C)c1O)c1cc(C(C)(C)C)cc(C(C)(C)C)c1O [2,2′-ethylidene-bis(4,6-di-tert-butylphenol), reference compound]
MBC [3]: > 250 µg/mL | MBC [4]: > 250 µg/mL | MIC [11]: > 250 µg/mL | MIC [23]: > 250 µg/mL

CC(C)(C)c1cc(Cc2cc(C(C)(C)C)c(O)c(C(C)(C)C)c2)cc(C(C)(C)C)c1O [4,4′-methylenebis(2,6-di-tert-butylphenol), reference compound]
MBC [3]: > 250 µg/mL | MBC [4]: > 250 µg/mL | MIC [11]: > 250 µg/mL | MIC [23]: > 250 µg/mL
